Reference: ChEMBL document CHEMBL5346934 (J Med Chem, 2023)

Assays:
[1] = tested on: Vaccinia virus; assay: Antiviral activity against Vaccinia virus infected in African green monkey BSC-1 cells incubated for 24 hrs by microscopic analysis; assay type: functional; settings: Orthopoxvirus vaccinia
[2] = tested on: Cowpox virus; assay: Antiviral activity against Cowpox virus Grishak infected in African green monkey Vero cells; assay type: functional, organism-based
[3] = tested on: Vaccinia virus; assay: Antiviral activity against Vaccinia virus infected in African green monkey Vero cells assessed as reduction virus induced cytopathic effect incubated for 24 hrs by MTT assay; assay type: functional, organism-based; settings: Orthopoxvirus vaccinia
[4] = Inhibition of D4 receptor (unknown origin); design: species or system Homo sapiens
[5] = tested on: Vaccinia virus; assay: Antiviral activity against Vaccinia virus Copenhagen infected in African green monkey Vero cells; assay type: functional, organism-based; settings: Orthopoxvirus vaccinia
[6] = tested on: Cowpox virus; assay: Antiviral activity against Cowpox virus Brighton infected in human HFF cells assessed as assessed as reduction in virus-induced cytopathic effect incubated for 7 days by microscopic analysis; assay type: functional, organism-based; settings: 168 h
[7] = tested on: Vaccinia virus; assay: Antiviral activity against Vaccinia virus Copenhagen infected in human HFF cells assessed as assessed as reduction in virus-induced cytopathic effect incubated for 7 days by microscopic analysis; assay type: functional, organism-based; settings: Orthopoxvirus vaccinia, 168 h
[8] = Cytotoxicity against African green monkey VERO cells assessed as inhibition of cell growth incubated for 24 hrs by MTT assay; assay type: toxicity, cell-based; settings: chlorocebus sabaeus
[9] = tested on: Vaccinia virus; assay: Antiviral activity against Vaccinia virus WR-GFP infected in BSC40 cells assessed as reduction in plaque formation measured after 72 hrs by crystal violet staining based analysis; assay type: functional, organism-based; settings: Orthopoxvirus vaccinia, BSC-40, 72 h
[10] = tested on: Vaccinia virus; assay: Antiviral activity against Vaccinia virus IHD-J infected in BSC40 cells assessed as reduction in plaque formation measured after 72 hrs by crystal violet staining based analysis; assay type: functional, organism-based; settings: Orthopoxvirus vaccinia, BSC-40, 72 h
[11] = tested on: Ectromelia virus; assay: Antiviral activity against ectromelia virus K-1 infected in Vero cells; assay type: functional, organism-based; settings: K-1, Vero
[12] = tested on: Vaccinia virus; assay: Antiviral activity against Vaccinia virus infected in monkey BSC40 cells assessed as reduction in virus-induced cytopathic effect; assay type: functional, organism-based; settings: Orthopoxvirus vaccinia, BSC-40
[13] = tested on: Vaccinia virus; assay: Antiviral activity against Vaccinia virus GFP infected in green […] cells assessed as reduction in plaque formation measured after 2.5 days by microscopic analysis; assay type: functional, organism-based; settings: Orthopoxvirus vaccinia, HT-1080, 60 h
[14] = tested on: Vaccinia virus; assay: Antiviral activity against Vaccinia virus GFP infected in green monkey CV-1 cells assessed as reduction in plaque formation measured after 2.5 days by microscopic analysis; assay type: functional, organism-based; settings: Orthopoxvirus vaccinia, CV-1, 60 h
[15] = tested on: Vaccinia virus; assay: Antiviral activity against Vaccinia virus IHD infected in African green monkey Vero cells assessed as reduction in plaque formation measured after 7 days; assay type: functional, organism-based; settings: Orthopoxvirus vaccinia, 168 h
[16] = tested on: Vaccinia virus; assay: Antiviral activity against wild type Vaccinia virus IHD infected in monkey Vero cells assessed as reduction in plaque formation measured after 7 days; assay type: functional, organism-based; settings: Orthopoxvirus vaccinia, 168 h
[17] = tested on: Variola virus; assay: Antiviral activity against Variola virus 7124 infected in African green monkey BSC-1 cells; assay type: functional, organism-based; settings: Variola virus, 7124, BSC-1
[18] = tested on: Cowpox virus; assay: Antiviral activity against Cowpox virus infected in African green monkey BSC-1 cells; assay type: functional, organism-based
[19] = tested on: Monkeypox virus; assay: Antiviral activity against Monkeypox virus infected in African green monkey BSC-1 cells; assay type: functional, organism-based
[20] = tested on: Vaccinia virus; assay: Antiviral activity against Vaccinia virus VG9 infected in African green monkey BSC-1 cells; assay type: functional, organism-based, Orthopoxvirus vaccinia; settings: Orthopoxvirus vaccinia, VG9, BSC-1
[21] = tested on: Vaccinia virus; assay: Antiviral activity against Vaccinia virus infected in African green monkey BSC-1 cells; assay type: functional, organism-based, Orthopoxvirus vaccinia; settings: Orthopoxvirus vaccinia, BSC-1
[22] = tested on: Vaccinia virus; assay: Antiviral activity against wild type Vaccinia virus infected in human HFF cells assessed as reduction in viral replication measured after 5 days by microscopic analysis; assay type: functional, organism-based; settings: Orthopoxvirus vaccinia, 120 h
[23] = tested on: Vaccinia virus; assay: Antiviral activity against Vaccinia virus infected in human HFF cells assessed as reduction in plaque formation measured after 7 days by colorimetric assay; assay type: functional, organism-based; settings: Orthopoxvirus vaccinia, 168 h

## CCCCCCCCNCCC[C@@H](C)[C@H]1CC[C@H]2[C@@H]3[C@H](OCCCN)C[C@@H]4C[C@H](OCCCN)CC[C@]4(C)[C@H]3C[C@H](OCCCN)[C@]12C
[1]
  EC90: 9.15 µM

## CCC(C(=O)Nc1sc(C(N)=O)c(C)c1C(=O)OC)c1ccccc1 (stereo not given)
[2]
  EC50: 8.4 µM
[3]
  EC50: 19.7 µM
[4]
  IC50: 13.4 µM
[5]
  EC50: 18.7 µM

## O=S(=O)(c1ccc(C2=CSC(Nc3ccc(F)cc3)N2CCCCCCO)cc1)N1CCCC1 (stereo not given)
[6]
  EC50: 4.5 µM
[7]
  EC50: 4.6 µM

## CC1(C)[C@@H]2CC[C@@]1(C)/C(=N/Nc1nc(-c3ccc(Br)cc3)cs1)C2
[8]
  CC50 at 24 h: 77.1 µM

## O=C1CN(C(=O)c2nccs2)C(c2cccc(Cl)c2)c2cc(Br)ccc2N1 (stereo not given)
[9]
  IC50: 1.3 µM
[10]
  EC50: 0.5 µM

## CC1(C)[C@@H]2CC[C@@]1(C)C(NC(=O)c1ccc([N+](=O)[O-])cc1)C2 (stereo not given in full)
[2]
  EC50: 1.4 µM
[11]
  EC50: 0.41 µM
[5]
  EC50: 0.03 µM

## COc1ccc(CCNC(=O)c2cc3ccccc3cc2O)cc1-c1ccc([N+](=O)[O-])cc1
[12]
  EC50: 12 µM

## O=[N+]([O-])c1cc(/C=N/c2ccccc2/N=C/c2ccc(O)c(O)c2)ccc1O
[13]
  EC50: 10.9 µM
[14]
  EC50: 13.2 µM

## C=C(CC)C(=O)c1ccc(OCC(=O)O)c(Cl)c1Cl [ETHACRYNIC ACID]
[15]
  EC50: 20 µM
[16]
  EC50: 40 µM

## O=C1c2c(O)ccc(O)c2C(=O)c2c(NCCNCCO)ccc(NCCNCCO)c21 [MITOXANTRONE]
[17]
  EC50: 0.25 µM
[18]
  EC50: 0.25 µM
[19]
  EC50: 0.8 µM
[20]
  EC50: 0.7 µM
[21]
  EC50: 0.5 µM

## CC(=O)Oc1ccccc1C(=O)Nc1ncc([N+](=O)[O-])s1 [NITAZOXANIDE]
[22]
  EC50: 1.95 µM

## CC[C@H](CO)Nc1nc(NCc2ccccc2O)c2ncn(C(C)C)c2n1 [OLOMOUCINE II]
[23]
  EC50: 3.8 µM
